Source: paper PMC4076047 (Nature chemical biology, 2014)
Counter-ions that a name gives are not always drawn.

Target: Vps35 (retromer core complex Vps35–Vps29–Vps26) (Homo sapiens, UniProt Q96QK1+Q9UBQ0)
Assay: microscale thermophoresis
Assay type: binding

SMILES: N=C(N)SCc1ccc(CSC(=N)N)s1 [compound 1, thiophene-2,5-diylbis(methylene) dicarbamimidothioate dihydrochloride]
- Kd: ~5 µM
